Experimental data taken from patent US8466172B2, “Stabilization of hypoxia inducible factor (HIF) alpha” (FibroGen, Inc., priority 2001, dated 2013).

Experiments:
HIF-regulated genes = assay: Expression of HIF-regulated genes in vivo, Murine genome U74AV2 array; parameters: species or system mouse; settings: 100 mg/kg oral gavage
Description: Twenty four Swiss Webster male mice (30-32 g) were obtained from Simonsen, Inc., and treated by oral gavage with a 4 ml/kg volume of either 0.5% CMC (Sigma-Aldrich) (0 mg/kg/day) or […] Compound A (25 mg/ml in 0.5% CMC) (100 mg/kg). At 4, 8, 16, 24, 48, or 72 hours after the final dose, animals were anesthetized with isoflurane and a blood sample was collected from the abdominal vein. The blood sample was collected into a MICROTAINER serum separator tube (Becton-Dickinson, Franklin Lakes N.J.), incubated at room temperature for 30 minutes, centrifuged at 8,000 rpm at 4° C. for 10 min, and cell pellet was resuspended in […] solution (Ambion) and stored at −80° C. The mice were then sacrificed and tissue samples of kidney, liver, brain, lung, and heart were isolated and stored in […] solution (Ambion) at −80° C.
RNA isolation was carried out using the following protocol. […] The RNA was eluted into 80 μL of water and quantitated with RIBOGREEN reagent (Molecular Probes, Eugene Oreg.). […] The absorbance at 260 and 280 nm was measured to determine RNA purity and concentration.
Alternatively, tissue samples were diced and homogenized in TRIZOL reagent (Invitrogen Life Technologies, Carlsbad Calif.) using a rotor-stator POLYTRON homogenizer (Kinematica). […] The absorbance at 260 and 280 nm was measured to determine RNA purity and concentration. […]

[1] = system: vascular endothelial growth factor (VEGF); assay: VEGF expression in conditioned media, QUANTIKINE immunoassay; format: cell-based, human; settings: HFF, 293A and Hep3B cells
Description: When cell layers reached confluence, the media was replaced with OPTI-MEM media (Invitrogen Life Technologies, Carlsbad Calif.) and cell layers were incubated for approximately 24 hours in 20% O2, 5% CO2 at 37° C. Compound of the invention (one of compounds A to O) or DMSO (0.5 to 1%) was then added to existing medium, and incubation was continued overnight.
Conditioned media collected from cell cultures grown as in Example 1 was analyzed for vascular endothelial growth factor (VEGF) expression using a QUANTIKINE immunoassay (R&D Systems) according to the manufacturer's instructions. […] Values on the y-axis represent fold-induction relative to control and are reported on a log2 scale, such that a value of 1 represents 2-fold induction.

[2] = system: Wistar rats, acute myocardial infarction (AMI); assay: Cardiac ischemia Experiment I, 10-week study after acute myocardial infarction; format: in vivo, rat
Description: Alternatively, one hundred forty adult male Wistar rats (200-250 g) were anaesthetized and subjected to left coronary artery occlusion to produce AMI. Forty-eight hours after surgery, 2DE images were obtained and animals with a significant area of infarction were randomized to treatment with compound A (n=34) or vehicle (n=34).
Animals were treated by gavage 2 times per day for the duration of the experiment with compound A at 50 mg/kg or with vehicle alone. Serum level of drug was determined periodically to establish that treated animals received sufficient and consistent amount of drug and that the measured levels were sufficient to inhibit prolyl 4-hydroxylase.
Digital mid-papillary muscle and apical four chamber 2DE images were obtained biweekly on half of the animals in each group until week 8. Two observers blinded to treatment did measurements off-line. For the measurements, the digital images were slowed and frozen at end systole and end diastole. Two to three endocardial surfaces were traced in both the short axis and four chamber views and averaged. The left ventricular area in systole and diastole, ejection fraction, fractional area change, wall thickness, mitral peak E wave velocity, aortic peak velocity, and infarct size were measured.
After 10 weeks of treatment, in vivo hemodynamic measurements were determined and hearts were excised and weighed as described below.
To collect in vivo hemodynamic measurements, animals were anaesthetized and the right carotid artery was dissected free from surrounding tissues and canulated with an SPR-671 ultra-miniature pressure transducer (Millar Instruments, Inc., Houston Tex.). The catheter was then advanced into the left ventricle. After steady state was established, baseline heart rate (HR), developed pressure (DP), contractile index (CI), left ventricle systolic pressure (SBP) and end diastolic pressure (LVEDP), and maximal rate of pressure rise and fall (+dP/dt and −dP/dt, respectively) were recorded.
Following hemodynamic measurement, hearts were excised and weighed. Pieces of scarred myocardium, and right ventricle and left ventricle myocardium distant from the site of infarct were dissected out and weighed. Hydroxyproline and proline were determined by the method of Palmerini et al. (1985, J Chromatogr 339:285-92) except that L-azetidine-2-carboxylic acid (Sigma-Aldrich) was substituted for 3,4-dehydroproline as the internal standard.

O=C(O)c1c[nH]c2c(ccc3cccnc32)c1=O [Compound A, 4-oxo-1,4-dihydro-[1,10]phenanthroline-3-carboxylic acid]
expression of genes encoding glycolytic enzymes (FIG. 7A) (HIF-regulated genes; mouse kidney): increased
expression of genes encoding angiogenic proteins (FIG. 5A) (HIF-regulated genes; mouse lung): increased
VEGF expression in conditioned media (FIG. 4A) [1]: increase in VEGF expression
deaths immediately following insult to the heart (FIG. 8) ([2]; 50 mg/kg gavage 2 times per day, n=34): no deaths
percent of treated group still alive ([2]; 8 weeks after myocardial infarction, 50 mg/kg gavage 2 times per day): over 90%
+dP/dt ([2]; 10 weeks post-MI): 6701 ± 331 mm Hg/sec
Developed pressure ([2]; 10 weeks post-MI): 97 ± 3 mm Hg
Hydroxyproline/proline in infarct scar ([2]; 10 weeks post-MI): 0.471 ± 0.024
Hydroxyproline/proline in non-infarct left ventricular myocardium ([2]; 10 weeks post-MI): 0.099 ± 0.025
Hydroxyproline/proline in non-infarct right ventricular myocardium ([2]; 10 weeks post-MI): 0.152 ± 0.044
Systolic BP ([2]; 10 weeks post-MI): 106 ± 4 mm Hg
−dP/dt ([2]; 10 weeks post-MI): 6395 ± 373 mm Hg/sec
left ventricular ejection fraction (LVEF) ([2]; at randomization): 33%
relative reduction in mortality ([2]; treated relative to untreated group, weeks 2 through 8): 77%
left ventricular ejection fraction (LVEF) relative to untreated controls (FIG. 10A) ([2]; weeks 2 through 8): statistically significant improvement
